Data set [1] in a line: Dose-ranging safety study: serious adverse events (seizures and deaths). The following applies: for seizures observed, in words: 100 mg/kg p.o. It counts as in vivo. As for the experimental part: Additional dose-ranging studies were performed to determine the range of safe doses for the isomers and the racemate. […]
In data set [2] the test system is TBZ-induced behavioural depression. The experiment in a line: Tetrabenazine-induced behavioural depression. It counts as in vivo, Male, CD-1 Mice. The following applies: for effect on tetrabenazine-induced behavioural depression: 25 mg/kg (ip), FIG. 1; for dose-effect against TBZ-induced depression: 30 minutes prior to TBZ, n=6, FIGS. 2 and 3. As for the experimental part: FIG. 2. Dose Response of Compound of Formula I Against TBZ-Induced Depression (Compounds administered 30 minutes prior to TBZ, Male, CD-1 Mice, i.p., n=6).
FIG. 3. Dose Response of Compound of Formula II Against TBZ-Induced Depression (Compounds administered 30 minutes prior to TBZ, Male, CD-1 Mice, i.p., n=6).
Tetrabenazine(TBZ)-induced behavioural depression was used as an in vivo measure of antidepressant activity. The test has been validated with a wide range of antidepressants, known to act through noradrenergic mechanisms (Cooper B. R. et al, “Animal models used in the prediction of antidepressant effects in man”, J. Clin. Psychiatry 44: 63–66, 1983). Moreover, the test was also used to identify Wellbutrin® as an anti-depressant. Briefly, animals were injected with the candidate agent (p.o. or i.p.) 30 minutes before receiving an i.p. injection of tetrabenazine (35 mg/kg, as the HCl salt—prepared fresh for each use). Assessments were performed 30 minutes thereafter and included: locomotor activity (1–4 scale); ptosis (1–4 scale) and body temperature as described previously (Cooper, B. R., J. L. Howard, and F. E. Soroko, Animal models used in prediction of antidepressant effects in man (Journal of Clinical Psychiatry, 44: p. 63–6, 1983). In all studies, the scientist performing the assessments was blind to the treatments. All parameters were weighted equally to give a “lumped” score (X) through the following algorithm: X=(1+Ptosis score)/(Activity score*[Temp,treated/Temp,control]

The target in data set [3] is T1, noradrenaline (NA) uptake, synaptosomes from rat hypothalamus (Rattus norvegicus, UniProt Q63380).
T1 construct: Synaptosomes for use in obtaining in vitro uptake data were prepared from hypothalamus or striatum by gently homogenizing the tissue; from tissue; host or cells: rat hypothalamus synaptosomes
As to the kind of experiment: In vitro synaptosomal [3H]-noradrenaline uptake. It counts as biochemical. The following applies: for IC50: rat hypothalamus synaptosomes. An excerpt:
(§1) Similarities and differences. Molecular Pharmacology, 21: p.

Data set [4] has as its target T2, dopamine uptake, synaptosomes from rat caudoputamen (Rattus norvegicus, UniProt P23977).
T2 construct: Synaptosomes for use in obtaining in vitro uptake data were prepared from hypothalamus or striatum by gently homogenizing the tissue; from tissue; host or cells: rat caudoputamen (striatum) synaptosomes
As to the kind of experiment: In vitro synaptosomal [3H]-dopamine uptake. It counts as biochemical. The following applies: for IC50: rat caudoputamen synaptosomes.
From the text: as §1

The test system of data set [5] is sexual behaviour of male mice. As to the kind of experiment: Mouse sexual behaviour model. It counts as in vivo, mice (C57BL/6 inbred strain). The following applies: hydrochloride salt. As for the experimental part:
Male (10 weeks old) and female (8 weeks old) mice (C57BL/6 inbred strain, Charles River, Como (Italy) that had no reproductive or copulatory experience were used in the study. Females were brought into behavioral oestrus with s.c. injections of 0.03 mg estradiol benzoate approximately 48 hr before testing and 0.1 mg progesterone, in sesame oil, 4 hr before testing.
The compound of formula (I) (as its hydrochloride salt) was dissolved in saline to provide a solution for intraperitoneal injection at a dose of 3 mg/kg, with a dose volume of 10 ml/kg. Dosing was performed one hour prior to the test.
Tests were conducted in Perspex arenas, 30 cm in diameter and 50 cm high, which were placed in the cage in which males had been placed individually one day prior to test. The sexual behaviour was filmed remotely under red light for 30 min using a video camera and recorder, the test starting immediately after placing a female mouse into the male's cage. Behavior parameters recorded were (i) the extent of male/female interaction, (ii) the extent of genital sniffing, and (iii) the mount frequency (the number of male mounts).

Data set [6] deals with T3, serotonin uptake, synaptosomes from rat hypothalamus (Rattus norvegicus, UniProt P31652). As to conditions: at 30 mM (so in the source).
Method: (§2) In vitro uptake was determined, as reported previously, using synaptosomes prepared from rat caudoputamen (for dopamine uptake) and hypothalamus (for NA and serotonin uptake) using [^3H]-dopamine, [^3H]-NA and [^3H]-serotonin as transport substrates, respectively.
(§3) Synaptosomes for use in obtaining in vitro uptake data were prepared from hypothalamus or striatum by gently homogenizing the tissue in a 0.3 M sucrose/25 mM Tris pH 7.4 buffer containing iproniazid phosphate to inhibit monoamine oxidase. The homogenate was centrifuged at 1100×g at 4° C. for 10 min and the supernatant was used for uptake studies. […] Under these conditions uptake was linear with respect to both for substrate and tissue (with <5% total substrate transported). Non-specific uptake was defined as uptake at 0° C. [^3H]-substrate, which had been transported into synaptosomes, was separated from free [^3H]-substrate by filtration over GF/B filters and washing with cold Krebs-Henseleit buffer. The filters were counted for tritum in a liquid scintillation spectrometer.
Data set [7] concerns CCI-induced decrease in mechanical paw withdrawal threshold. As to the kind of experiment: Chronic constriction injury model of mononeuropathy. It counts as in vivo, male Random Hooded rats. As to conditions: CCI rats, FIG. 6. An excerpt:
Mononeuropathy was reproduced in male Random Hooded rats (180–250 g) using the Chronic Constriction Injury (CCI) model as described by Bennett and Xie (1988). Under Isoflurane anaesthesia, the common left sciatic nerve of the rats was exposed at mid thigh level. Four ligatures of Chromic gut (4.0) were tied loosely around the nerve with a 1 mm spacing between each. The wound was then closed and secured with suture staples. The surgical procedure was identical for the sham operated animals except the sciatic nerve was not ligated. The animals were allowed a period of 12 days to recover from the surgery before any behavioural testing began.
The effect of the compound of formula (I) (administered as the hydrochloride salt at 20 mgkg^−1 t.i.d. p.o. chronically for a period of 7 days) on CCI-induced decrease in mechanical paw withdrawal threshold was measured using an algesymeter (Randall & Selitto, 1957).

Data set [8] deals with T3, serotonin uptake, synaptosomes from rat hypothalamus. As to the kind of experiment: biochemical.
Method: as §2, §3
The subject of data set [9] is MPTP-induced Parkinsonian marmosets. As to the kind of experiment: MPTP-treatment Parkinson's disease model. It counts as in vivo. As to conditions: hydrochloride salt, once weekly by oral gavage, MPTP-treated marmosets. The protocol: Locomotor deficits and motor disability were induced in marmosets by the administration of MPTP 2 mg/kg sc on five consecutive days. After the acute effects of MPTP administration had been overcome, bradykinesia, rigidity and loss of vocalisation remained. The compound of formula (I) (as its hydrochloride salt) was administered once weekly by oral gavage, freshly dissolved in 10% sucrose solution with dosages calculated as the free base. […] Assessment of motor disablities was by an observer through a one-way mirror: alertness, checking movements, posture, balance/co-ordination, reaction, vocalisation and motility were each scored. A score of zero indicated a “normally” behaing animal, while a maximum total score of 18 in the monitoring period indicated a severely disabled animal.

Where [10] appears, read: read-out: IC50, [3H]-Dopamine Uptake.
Where [11] appears, read: 3 mg/kg intraperitoneal, one hour prior to 30 min test.
Setting [12] is: intraperitoneal injection, versus control.

Consider six compounds from patent publication US7098206B2, “Pharmaceutically active morpholinol” (SmithKline Beecham Corporation, priority 1998, dated 2006).

Read-outs that look alike come from different tables or passages of the source.

Usually IC50 stands for the concentration at which inhibition is half-maximal.

T2 sequence (P23977 whole entry): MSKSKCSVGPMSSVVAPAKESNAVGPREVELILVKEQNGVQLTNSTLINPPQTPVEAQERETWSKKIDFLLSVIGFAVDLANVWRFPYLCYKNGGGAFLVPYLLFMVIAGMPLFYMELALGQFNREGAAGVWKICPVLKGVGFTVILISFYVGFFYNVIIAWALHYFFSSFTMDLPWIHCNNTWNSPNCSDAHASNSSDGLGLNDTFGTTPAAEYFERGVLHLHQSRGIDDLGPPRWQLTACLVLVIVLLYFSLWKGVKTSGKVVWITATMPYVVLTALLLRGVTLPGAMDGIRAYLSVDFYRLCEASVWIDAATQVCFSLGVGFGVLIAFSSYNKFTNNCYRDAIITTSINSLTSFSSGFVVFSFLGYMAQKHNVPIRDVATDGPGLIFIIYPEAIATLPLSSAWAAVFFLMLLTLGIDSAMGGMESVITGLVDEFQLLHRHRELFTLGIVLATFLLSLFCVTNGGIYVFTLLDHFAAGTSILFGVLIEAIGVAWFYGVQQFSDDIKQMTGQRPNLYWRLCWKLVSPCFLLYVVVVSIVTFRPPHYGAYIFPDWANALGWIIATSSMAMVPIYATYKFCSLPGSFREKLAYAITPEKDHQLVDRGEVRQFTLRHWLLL
T3 sequence (P31652 whole entry): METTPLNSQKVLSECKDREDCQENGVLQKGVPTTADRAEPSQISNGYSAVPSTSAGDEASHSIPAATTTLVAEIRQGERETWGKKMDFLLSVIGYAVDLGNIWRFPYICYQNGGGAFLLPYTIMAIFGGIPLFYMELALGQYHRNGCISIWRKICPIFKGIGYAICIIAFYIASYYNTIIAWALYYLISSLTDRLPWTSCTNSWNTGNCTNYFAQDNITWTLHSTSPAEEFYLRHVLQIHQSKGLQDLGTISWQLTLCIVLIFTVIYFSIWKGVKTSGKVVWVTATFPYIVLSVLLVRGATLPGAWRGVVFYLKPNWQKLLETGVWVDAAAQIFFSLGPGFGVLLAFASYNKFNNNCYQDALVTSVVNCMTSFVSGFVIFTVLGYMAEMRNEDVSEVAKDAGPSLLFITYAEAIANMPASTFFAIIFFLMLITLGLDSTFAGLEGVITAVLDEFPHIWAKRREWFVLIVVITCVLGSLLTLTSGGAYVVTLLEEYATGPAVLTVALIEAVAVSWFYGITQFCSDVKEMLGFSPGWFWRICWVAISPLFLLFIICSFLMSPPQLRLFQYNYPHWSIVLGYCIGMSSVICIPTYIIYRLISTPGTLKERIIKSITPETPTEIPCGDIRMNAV
T1 sequence (Q63380 1-617): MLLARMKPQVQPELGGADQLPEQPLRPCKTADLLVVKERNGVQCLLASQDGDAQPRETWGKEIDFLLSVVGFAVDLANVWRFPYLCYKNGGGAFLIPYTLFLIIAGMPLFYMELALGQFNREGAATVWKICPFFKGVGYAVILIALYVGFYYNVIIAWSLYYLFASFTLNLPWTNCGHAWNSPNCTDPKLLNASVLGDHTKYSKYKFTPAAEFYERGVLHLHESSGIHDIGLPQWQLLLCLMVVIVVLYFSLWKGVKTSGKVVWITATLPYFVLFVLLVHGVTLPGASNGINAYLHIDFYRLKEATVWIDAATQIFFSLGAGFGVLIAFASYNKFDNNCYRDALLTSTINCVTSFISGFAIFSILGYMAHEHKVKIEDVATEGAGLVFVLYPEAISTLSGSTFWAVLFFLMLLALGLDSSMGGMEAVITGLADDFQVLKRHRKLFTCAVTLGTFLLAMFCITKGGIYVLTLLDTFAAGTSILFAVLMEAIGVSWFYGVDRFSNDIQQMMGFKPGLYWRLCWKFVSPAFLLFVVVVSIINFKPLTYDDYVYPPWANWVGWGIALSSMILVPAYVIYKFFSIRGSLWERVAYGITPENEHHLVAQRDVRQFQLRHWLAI

Regarding `CC1NC(C)(C)COC1(O)c1cccc(Cl)c1.Cl` (racemic) [Racemate, (+/−)-(2R*,3R*)-2-(3-chlorophenyl)-3,5,5-trimethyl-2-morpholinol], the “seizures observed, in words” value in data set [1] is given as “seizures were observed”. Further, the “% Died” value in [1] (i.p., 100 mg/kg) was found to be 20%; in data set [1] (i.p., 300 mg/kg) it was 100%; in data set [1] (p.o., 100 mg/kg) it was 0%; in data set [1] (p.o., 300 mg/kg), 80%. In addition, the “Seizures (%)” value turned out to be 100% in [1] (i.p., 100 mg/kg); 100% in data set [1] (i.p., 300 mg/kg); 100% in data set [1] (p.o., 100 mg/kg); 100% in data set [1] (p.o., 300 mg/kg). Also, the “Time to Death” value in data set [1] (i.p., 100 mg/kg) stood at 14 min; in [1] (i.p., 300 mg/kg), 3 min; in data set [1] (p.o., 300 mg/kg), 7 min. Further, the “Time to Seizures” value in data set [1] (i.p., 100 mg/kg) was determined as 3 min; in [1] (i.p., 300 mg/kg), 3 min; in data set [1] (p.o., 100 mg/kg), 9.2 min; in [1] (p.o., 300 mg/kg) it was 6.8 min.

On to `CC(NC(C)(C)C)C(=O)c1cccc(Cl)c1.Cl` (racemic) [Bupropion, (±)-1-(3-chlorophenyl)-2-[(1,1-dimethylethyl)amino]-1-propanone hydrochloride], for which the “effect on tetrabenazine-induced behavioural depression” value in data set [2] is reported as “abolished the tetrabenazine-induced behavioural depression”. For the same compound, the IC50 in [3] turned out to be 2.2 µM; in data set [4] (setting [10]) it was 1.9 µM.

For `C[C@@H]1NC(C)(C)CO[C@@]1(O)c1cccc(Cl)c1` (single isomer, unassigned) [Formula (I)], in [1] (i.p., 100 mg/kg), the “% Died” value was 0%, the “Seizures (%)” value came to 100% and the “Time to Seizures” value was found to be 3.93 min. In addition, the “% Died” value in data set [1] (i.p., 100 mg/kg, listed as compound of formula I) is “No deaths were observed”. In [1] (i.p., 300 mg/kg), the “% Died” value turned out to be 100%, the “Seizures (%)” value is reported as 100%, the “Time to Death” value is recorded as 6 min and the “Time to Seizures” value worked out at 3.95 min. Further, in [1] (p.o., 100 mg/kg), the “% Died” value was found to be 0% and the “Seizures (%)” value was 0%. Moreover, in data set [1] (p.o., 300 mg/kg), the “% Died” value worked out at 0%, the “Seizures (%)” value worked out at 100% and the “Time to Seizures” value is on record as 11.23 min. Further, in data set [1] (p.o., 300 mg/kg, listed as compound of formula I), the “% Died” value is “no deaths were observed”. Further, the “effect on tetrabenazine-induced behavioural depression” value in [2] is on record as “abolished the tetrabenazine-induced behavioural depression”. For the same compound, the “dose-effect against TBZ-induced depression” value in [2] (i.p.) was “sharp increase in activity between 3 mg/kg and 6 mg/kg”. In [5] (setting [11]), the M/F interaction entry is recorded as “*228.8 ± 30.3 sec”; the “Mount frequency, No. of events ± SEM” value is given as 6.6 ± 1.7; the “Time spent in genital sniffing” value is listed as “*203.6 ± 30.1 sec”. In data set [5] (setting [12]), the “genital sniffing, change in words” value is given as “statistically significant (unpaired t-test) increase”; the “male/female interaction, change in words” value is on record as “statistically significant (unpaired t-test) increase”; the “mount frequency, change in words” value is reported as “trend towards increasing mount frequency”. For the same compound, in data set [6], the “inhibition of serotonin uptake at a fixed concentration” value is on record as “Neither compound inhibited serotonin uptake”. Further, the “potency as NA inhibitor relative to Wellbutrin” value in data set [3] (versus Wellbutrin) is listed as “approximately twice as potent”. The “mechanical paw withdrawal threshold on cessation of treatment” value in [7] (after 20 mgkg−1 t.i.d. p.o. for 7 days) is “falling back towards CCI-operated vehicle-treated levels”. The “mechanical paw withdrawal threshold during chronic dosing” value in data set [7] (hydrochloride salt, 20 mgkg−1 t.i.d. p.o. for 7 days) is reported as “reversal was maintained throughout the chronic dosing period”. Besides, the “mechanical paw withdrawal threshold after a single dose” value in [7] (hydrochloride salt, single dose 20 mgkg−1 p.o.) is “immediate reversal of the fall in paw withdrawal threshold back towards sham operated levels”. Further, in [4] (IC50, [3H]-Dopamine Uptake), the IC50 was around 10 µM. The IC50 in data set [4] (setting [10]) turned out to be 9.3 µM. Also, in [4] (unlike Wellbutrin, comparison as worded), the “potency as inhibitor of dopamine uptake, fold less potent” value is recorded as “approximately 10 fold”. The IC50 in data set [8] was above 30 µM. Also, in data set [9] (FIG. 4), the locomotor deficits result is given as “reversed the locomotor deficits”. In addition, the motor disability entry in [9] (FIG. 5) was “reversed”.

For `C[C@H]1NC(C)(C)CO[C@]1(O)c1cccc(Cl)c1` (single isomer, unassigned) [Formula (II)], the “seizures observed, in words” value in data set [1] was “seizures were observed”. In addition, the “% Died” value in data set [1] (i.p., 100 mg/kg) stood at 100%; in data set [1] (i.p., 300 mg/kg), 100%; in data set [1] (p.o., 100 mg/kg), 0%; in data set [1] (p.o., 300 mg/kg) it was 100%. The “Seizures (%)” value in [1] (i.p., 100 mg/kg) turned out to be 20%; in [1] (i.p., 300 mg/kg), 100%; in [1] (p.o., 100 mg/kg) it was 100%; in [1] (p.o., 300 mg/kg), 100%. The “Time to Death” value in data set [1] (i.p., 100 mg/kg) stood at 7 min; in data set [1] (i.p., 300 mg/kg), 6 min; in data set [1] (p.o., 300 mg/kg), 7 min. The “Time to Seizures” value in [1] (i.p., 100 mg/kg) was found to be 5 min; in data set [1] (i.p., 300 mg/kg) it was 1.1 min; in data set [1] (p.o., 100 mg/kg), 7.2 min; in data set [1] (p.o., 300 mg/kg) it was 6.8 min. Further, the “effect on tetrabenazine-induced behavioural depression” value in [2] was “only modest activity”. Moreover, the “effect on TBZ-induced depression at the top dose” value in [2] (50 mg/kg, i.p., FIG. 3) is listed as “appeared to worsen the animal's condition”. Moreover, in data set [2] (i.p.), the “dose-effect against TBZ-induced depression” value was “did not possess dose-related activity”. The “inhibition of serotonin uptake at a fixed concentration” value in data set [6] is recorded as “Neither compound inhibited serotonin uptake”. Further, in data set [3] (at a concentration of 30 μM), the “inhibition of noradrenaline (NA) uptake at a fixed concentration” value was “ineffective”. Further, the values for the IC50 in data set [3], in data set [4] (setting [10]) and in data set [8] were above 30 µM, above 100 µM and above 100 µM, respectively. The “inhibition of dopamine (DA) uptake at a fixed concentration” value in data set [4] (at 30 μM) was “inactive”.

Regarding `CN(C)CCC=C1c2ccccc2CCc2ccccc21` [amitryptyline], in data set [2], the “effect on tetrabenazine-induced behavioural depression” value is given as “abolished the tetrabenazine-induced behavioural depression”.

In the case of `CC1NC(C)(C)COC1(O)c1cccc(Cl)c1` (stereo not drawn) [Racemate, (+/−)-(2R*,3R*)-2-(3-chlorophenyl)-3,5,5-trimethyl-2-morpholinol], in data set [2], the “effect on tetrabenazine-induced behavioural depression” value was “abolished the tetrabenazine-induced behavioural depression”.
